Data from paper PMC11224111, “Optimizing the pharmacokinetics of an ^211At-labeled RGD peptide with an albumin-binding moiety via the administration of an albumin-binding inhibitor” (European Journal of Nuclear Medicine and Molecular Imaging, 2024).

Tests used:
[1] = parameters: method as in PMID 37819452; conditions: normal mice; cited from earlier work
[2] = tested on: U-87 MG tumor-bearing mice; parameters: method as in PMID 37819452; conditions: until 24-h postinjection, nonadministration of IPBA; cited from earlier work
[3] = Radiation dose estimation (MIRDcalc, adult male) from mouse biodistribution; parameters: species or system human; conditions: for Absorbed dose estimates, Bone marrow / Absorbed dose estimates, Brain / Absorbed dose estimates, Heart / Absorbed dose estimates, Kidney / Absorbed dose estimates, L. intestine / Absorbed dose estimates, Liver / Absorbed dose estimates, Lung / Absorbed dose estimates, Muscle / Absorbed dose estimates, Pancreas / Absorbed dose estimates, S. intestine / Absorbed dose estimates, Spleen / Absorbed dose estimates, Stomach / Absorbed dose estimates, Thyroid / Absorbed dose estimates, Tumor: adult male, MIRDcalc
From the text: For estimation of the radiation dose absorbed, the blood, bone, and muscle mass of mice were assumed to be 8%, 5%, and 48% of body weight, respectively. The stomach was assumed to be distributed only in the wall, the heart, small intestine, and colon equally in the content and wall, and the colon was further assumed to be equally distributed in the left, right, and rectosigmoid. According to the International Commission on Radiological Protection, an equal distribution of radionuclide to trabecular and cortical bones was assumed. The non-decay-corrected activity from each source organ was converted into a percentage of the injected dose. The area under each organ’s activity curve from time 0 to infinity was calculated by extrapolation of biodistribution data. To correct for the different ratios of organ to total body weights in mouse and in human, we used the following organ correction factor (CR):
CR=organmass/totalbodymasshuman/organmass/totalbodymassmouse
Human organ weights and total body weights used data for adult males from previous reports. Tumor volume was converted from mouse-to-human total body weight ratio. According to the values, the radiation doses were calculated for an adult male patient using MIRDcalc v1.21 software (Society of Nuclear Medicine and Molecular Imaging). In the case of without administrating IPBA, calculation was performed using the data of a biodistribution study in our previous study.

[4] = With IPBA, ratio of absorbed dose estimates
[5] = Without IPBA, calculated from data of ref 16
[6] = Without IPBA, ratio of absorbed dose estimates, calculated from data of ref 16

## Ga-DOTA-K([^211At]APBA)-c(RGDfK) [[^211At]1]
[1]
  Toxicity: no serious hematotoxicity and weight loss
[2]
  Excretion, feces: 2.75 ± 0.40 %IA
  Excretion, urine: 10.94 ± 2.66 %IA
[3]; 1.85 MBq with IPBA
  Absorbed dose to tumor tissue: 1.34 mGy
[3]; With IPBA
  Absorbed dose estimates, Bone marrow: 0.042 mGy/MBq
  Absorbed dose estimates, Brain: 0.017 mGy/MBq
  Absorbed dose estimates, Heart: 0.080 mGy/MBq
  Absorbed dose estimates, Kidney: 0.266 mGy/MBq
  Absorbed dose estimates, L. intestine: 0.056 mGy/MBq
  Absorbed dose estimates, Liver: 0.109 mGy/MBq
  Absorbed dose estimates, Lung: 0.203 mGy/MBq
  Absorbed dose estimates, Muscle: 0.300 mGy/MBq
  Absorbed dose estimates, Pancreas: 0.087 mGy/MBq
  Absorbed dose estimates, S. intestine: 0.052 mGy/MBq
  Absorbed dose estimates, Spleen: 0.117 mGy/MBq
  Absorbed dose estimates, Stomach: 0.051 mGy/MBq
  Absorbed dose estimates, Thyroid: 0.032 mGy/MBq
  Absorbed dose estimates, Tumor: 0.727 mGy/MBq
[3]; [4]
  Tumor/normal tissue ratio, Brain: 51.071
  Tumor/normal tissue ratio, Heart: 10.712
  Tumor/normal tissue ratio, Kidney: 3.226
  Tumor/normal tissue ratio, L. intestine: 15.349
  Tumor/normal tissue ratio, Liver: 7.872
  Tumor/normal tissue ratio, Lung: 4.227
  Tumor/normal tissue ratio, Muscle: 2.860
  Tumor/normal tissue ratio, Pancreas: 9.873
  Tumor/normal tissue ratio, S. intestine: 16.437
  Tumor/normal tissue ratio, Spleen: 7.333
  Tumor/normal tissue ratio, Stomach: 16.791
  Tumor/normal tissue ratio, Thyroid: 26.729
[3]; [5]
  Absorbed dose estimates, Bone marrow: 0.132 mGy/MBq
  Absorbed dose estimates, Brain: 0.218 mGy/MBq
  Absorbed dose estimates, Heart: 0.381 mGy/MBq
  Absorbed dose estimates, Kidney: 0.427 mGy/MBq
  Absorbed dose estimates, L. intestine: 0.193 mGy/MBq
  Absorbed dose estimates, Liver: 0.319 mGy/MBq
  Absorbed dose estimates, Lung: 0.976 mGy/MBq
  Absorbed dose estimates, Muscle: 0.557 mGy/MBq
  Absorbed dose estimates, Pancreas: 0.246 mGy/MBq
  Absorbed dose estimates, S. intestine: 0.190 mGy/MBq
  Absorbed dose estimates, Spleen: 0.354 mGy/MBq
  Absorbed dose estimates, Stomach: 0.176 mGy/MBq
  Absorbed dose estimates, Thyroid: 0.111 mGy/MBq
  Absorbed dose estimates, Tumor: 0.858 mGy/MBq
[3]; [6]
  Tumor/normal tissue ratio, Bone marrow: 6.500
  Tumor/normal tissue ratio, Brain: 3.936
  Tumor/normal tissue ratio, Heart: 2.252
  Tumor/normal tissue ratio, Kidney: 2.009
  Tumor/normal tissue ratio, L. intestine: 4.446
  Tumor/normal tissue ratio, Liver: 2.690
  Tumor/normal tissue ratio, Lung: 0.879
  Tumor/normal tissue ratio, Muscle: 1.540
  Tumor/normal tissue ratio, Pancreas: 3.488
  Tumor/normal tissue ratio, S. intestine: 4.516
  Tumor/normal tissue ratio, Spleen: 2.424
  Tumor/normal tissue ratio, Stomach: 4.875
  Tumor/normal tissue ratio, Thyroid: 7.730
